These results are taken from ChEMBL document CHEMBL1201862, “PubChem BioAssay data set” (2004).

Active and inactive are the calls of the source. Where only a bound is given, the exact number is not on record here.

The target in assay [1] is T1, Runt-related transcription factor 1/Core-binding factor subunit beta (Homo sapiens, UniProt Q01196+Q13951). Description: Runt domain/CBFb-SMMHC interaction disruptors – biochemical, TR-FRET (AID 1438). The format is protein assay.
For assay [2], the target named is T1, Runt-related transcription factor 1/Core-binding factor subunit beta. Nature of the assay: disruptors of Runt domain/CBFb-SMMHC interaction – biochemical, FRET, Cerulean-Runt, Venus-CBFb-SMMHC, uHTS, […] (AID 1434). The format is protein assay.
The next assay has as its target Genome polyprotein (Hepatitis C virus, UniProt Q2Q167). Nature of the assay: disruption of hepatitis C core self-association – biochemical, TR-FRET, dose response (AID 2159).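 Also: blocks dimerization of HCV core protein measured by TR-FRET between tagged core106 pairs.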 Set-up: species or system Hepacivirus hominis.
For another assay, the system named is INS1. Nature of the assay: INS-1E survival protection against cytokine death – cell-based, luminescence, retest, dose response (AID 449756).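 Also: cell death triggered by IL-1 beta plus TNF-alpha plus IFN-gamma mixture; protective hits raise ATP signal compared with cytokine alone wells.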 Particulars: Rattus norvegicus. The format is functional.
A further assay deals with T2, Mucolipin-3 (Homo sapiens, UniProt Q8TDD5).
T2 sequence (Q8TDD5 whole entry): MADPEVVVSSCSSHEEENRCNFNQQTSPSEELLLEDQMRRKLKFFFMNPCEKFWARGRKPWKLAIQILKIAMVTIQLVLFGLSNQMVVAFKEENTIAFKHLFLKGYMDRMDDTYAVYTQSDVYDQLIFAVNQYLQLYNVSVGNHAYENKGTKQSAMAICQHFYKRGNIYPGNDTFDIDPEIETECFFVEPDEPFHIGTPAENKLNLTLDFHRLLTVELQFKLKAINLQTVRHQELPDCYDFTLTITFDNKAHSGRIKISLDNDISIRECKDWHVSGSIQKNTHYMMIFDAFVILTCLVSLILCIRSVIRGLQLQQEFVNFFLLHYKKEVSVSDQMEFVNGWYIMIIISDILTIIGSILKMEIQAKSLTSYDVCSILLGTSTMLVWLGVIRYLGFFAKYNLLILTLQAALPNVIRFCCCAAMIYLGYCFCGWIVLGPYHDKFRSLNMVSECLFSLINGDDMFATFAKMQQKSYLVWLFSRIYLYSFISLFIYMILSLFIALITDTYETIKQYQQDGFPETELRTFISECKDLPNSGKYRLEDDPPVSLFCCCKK
Description: Fluorescence counterscreen assay for […] agonists: dose response cell-based high-throughput screening assay to identify agonists of the transient receptor potential channel ML3 (TRPML3). [Related pubchem assays: 1424, 1448 ]. The format is functional. (In general: The purpose of a counterscreen is to sort out artefacts and off-target activity.)

A further assay addresses Ion channel NompC (Danio rerio, UniProt Q7T1G6). Description: Dose response cell-based high-throughput screening assay for agonists of the transient receptor potential channel N1 (TRPN1). [Related pubchem assays (depositor defined):AID1424, AID1448]. The format is functional.
A further assay concerns the target T3, Galanin receptor type 3 (Homo sapiens, UniProt O60755).
T3 sequence (O60755 whole entry): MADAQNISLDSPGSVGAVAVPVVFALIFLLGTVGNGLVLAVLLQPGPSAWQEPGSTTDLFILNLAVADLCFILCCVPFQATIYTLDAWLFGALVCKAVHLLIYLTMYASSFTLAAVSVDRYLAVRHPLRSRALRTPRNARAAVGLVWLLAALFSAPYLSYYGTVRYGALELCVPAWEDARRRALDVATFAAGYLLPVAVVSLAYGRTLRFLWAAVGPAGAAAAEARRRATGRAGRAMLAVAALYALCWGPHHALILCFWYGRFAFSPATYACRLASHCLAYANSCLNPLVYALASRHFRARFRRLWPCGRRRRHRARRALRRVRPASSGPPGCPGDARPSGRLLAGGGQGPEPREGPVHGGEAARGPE
Nature of the assay: Fluorescence-based cell-based primary high throughput dose response assay to identify antagonists of the Galanin Receptor 3 (GalR3). Type of assay: functional.

The target of the next assay is Galanin receptor type 2 (Homo sapiens, UniProt O43603). Description: Dose Response cell-based high-throughput screening assay to identify antagonists of galanin receptor 2 (GALR2). [Related pubchem assays: 828, 866 ]. The format is functional.
A short description of the next assay: cells. Particulars: HEK-CNG. Type of assay: functional, cell-based.

T1 sequence (Q01196 whole entry, the tested form may be a part): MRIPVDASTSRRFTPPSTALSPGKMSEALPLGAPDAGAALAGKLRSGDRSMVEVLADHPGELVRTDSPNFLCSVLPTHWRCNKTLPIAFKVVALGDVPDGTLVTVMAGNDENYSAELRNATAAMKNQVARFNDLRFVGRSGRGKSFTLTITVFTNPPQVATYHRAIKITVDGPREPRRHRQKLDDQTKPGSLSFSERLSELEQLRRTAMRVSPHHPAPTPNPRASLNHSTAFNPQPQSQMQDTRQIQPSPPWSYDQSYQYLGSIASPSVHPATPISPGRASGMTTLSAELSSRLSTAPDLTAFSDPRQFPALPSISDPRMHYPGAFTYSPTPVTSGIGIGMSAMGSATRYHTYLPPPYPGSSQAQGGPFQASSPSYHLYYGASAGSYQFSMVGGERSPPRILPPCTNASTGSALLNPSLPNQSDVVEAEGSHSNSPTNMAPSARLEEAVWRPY
T1 sequence (Q13951 whole entry, the tested form may be a part): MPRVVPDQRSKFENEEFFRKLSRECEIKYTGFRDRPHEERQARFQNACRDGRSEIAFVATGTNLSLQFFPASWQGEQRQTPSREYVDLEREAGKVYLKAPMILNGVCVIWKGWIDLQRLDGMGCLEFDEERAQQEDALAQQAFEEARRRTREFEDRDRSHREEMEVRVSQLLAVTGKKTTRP
Chain of Ion channel NompC (Q7T1G6 whole entry): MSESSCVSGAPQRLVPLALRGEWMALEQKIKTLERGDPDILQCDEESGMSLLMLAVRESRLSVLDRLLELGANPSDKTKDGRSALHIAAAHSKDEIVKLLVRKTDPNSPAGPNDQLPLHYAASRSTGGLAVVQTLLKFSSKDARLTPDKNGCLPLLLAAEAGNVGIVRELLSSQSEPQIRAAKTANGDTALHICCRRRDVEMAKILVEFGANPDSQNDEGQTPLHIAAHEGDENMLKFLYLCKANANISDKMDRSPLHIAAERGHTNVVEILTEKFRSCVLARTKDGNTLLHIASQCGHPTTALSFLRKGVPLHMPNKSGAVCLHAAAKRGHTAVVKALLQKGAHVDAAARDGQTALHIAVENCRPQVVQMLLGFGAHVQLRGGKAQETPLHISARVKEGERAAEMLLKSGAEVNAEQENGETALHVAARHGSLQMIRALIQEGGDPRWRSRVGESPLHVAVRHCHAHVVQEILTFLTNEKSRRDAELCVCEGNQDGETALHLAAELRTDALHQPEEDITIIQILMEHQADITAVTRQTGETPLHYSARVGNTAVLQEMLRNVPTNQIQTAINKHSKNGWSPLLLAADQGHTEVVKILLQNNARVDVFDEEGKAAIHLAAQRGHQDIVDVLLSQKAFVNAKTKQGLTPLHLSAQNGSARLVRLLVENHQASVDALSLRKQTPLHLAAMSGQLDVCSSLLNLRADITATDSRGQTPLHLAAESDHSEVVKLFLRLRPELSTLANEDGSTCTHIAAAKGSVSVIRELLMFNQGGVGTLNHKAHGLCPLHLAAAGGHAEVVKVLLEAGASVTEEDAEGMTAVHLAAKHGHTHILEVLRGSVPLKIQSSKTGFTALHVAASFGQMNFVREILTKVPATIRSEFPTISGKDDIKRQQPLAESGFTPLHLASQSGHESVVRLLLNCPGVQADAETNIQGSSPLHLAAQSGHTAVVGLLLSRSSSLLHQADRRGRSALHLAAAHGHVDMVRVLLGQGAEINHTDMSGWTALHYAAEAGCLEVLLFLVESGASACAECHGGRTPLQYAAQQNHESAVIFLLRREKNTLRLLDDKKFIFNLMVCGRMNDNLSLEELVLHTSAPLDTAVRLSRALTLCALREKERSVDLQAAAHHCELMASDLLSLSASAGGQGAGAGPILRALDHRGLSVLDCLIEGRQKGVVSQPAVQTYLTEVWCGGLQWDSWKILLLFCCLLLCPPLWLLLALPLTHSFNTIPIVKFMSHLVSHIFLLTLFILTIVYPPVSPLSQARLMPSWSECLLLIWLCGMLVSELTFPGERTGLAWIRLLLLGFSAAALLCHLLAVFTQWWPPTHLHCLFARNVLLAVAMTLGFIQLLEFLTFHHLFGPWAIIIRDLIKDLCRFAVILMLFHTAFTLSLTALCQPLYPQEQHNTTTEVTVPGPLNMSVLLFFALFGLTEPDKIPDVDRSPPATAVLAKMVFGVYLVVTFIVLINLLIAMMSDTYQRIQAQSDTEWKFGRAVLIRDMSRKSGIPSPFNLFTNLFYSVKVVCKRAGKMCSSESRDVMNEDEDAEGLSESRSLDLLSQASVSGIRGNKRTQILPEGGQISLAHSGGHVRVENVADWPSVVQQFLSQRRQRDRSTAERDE
Chain of Genome polyprotein (Q2Q167 whole entry): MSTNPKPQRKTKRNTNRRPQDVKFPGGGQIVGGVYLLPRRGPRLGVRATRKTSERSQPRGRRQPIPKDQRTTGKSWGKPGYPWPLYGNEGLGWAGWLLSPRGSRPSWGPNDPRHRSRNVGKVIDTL
Chain of Galanin receptor type 2 (O43603 whole entry): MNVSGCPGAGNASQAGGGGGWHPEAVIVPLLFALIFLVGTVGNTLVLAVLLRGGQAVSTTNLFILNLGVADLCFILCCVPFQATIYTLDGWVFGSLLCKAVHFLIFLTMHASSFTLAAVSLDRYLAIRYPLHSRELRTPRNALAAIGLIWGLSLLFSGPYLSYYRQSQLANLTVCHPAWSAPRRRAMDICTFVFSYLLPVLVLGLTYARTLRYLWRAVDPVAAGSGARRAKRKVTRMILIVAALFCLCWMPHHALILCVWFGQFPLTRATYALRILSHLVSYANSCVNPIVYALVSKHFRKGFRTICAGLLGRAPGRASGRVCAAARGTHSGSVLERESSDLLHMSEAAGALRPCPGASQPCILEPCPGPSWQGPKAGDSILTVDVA

For the compound `Cc1cccc(C(=O)/N=c2\c(C#N)cc3c(=O)n4cccc(C)c4nc3n2Cc2ccco2)c1`, the IC50 (as a rule, the concentration at which inhibition is half-maximal) is 6.54 µM (active) in assay [1], 0.429 µM (active) in assay [2] and > 49.8 µM (not active) against Genome polyprotein.
As to `C1=C(CCNc2[nH]cnc3c4ccccc4nc2-3)CCCC1`, in the assay with INS1, the concentration at half-maximal activity (AC50) (as a rule, the concentration giving half of the maximal activity seen) is 0.219 µM (active). The EC50 (commonly the midpoint of the concentration-response curve) at Mucolipin-3 was > 29.9 µM (not active); on Ion channel NompC, > 29.9 µM (inactive); in “cells” it was > 29.9 µM (inactive). The half-maximal inhibitory concentration (IC50) was 0.383 µM (active) on Galanin receptor type 3 and > 42 µM (not active) against Galanin receptor type 2.
